According to paper PMC12416277, “Phytochemical alkaloids orchestrate immunometabolism against viral infections” (National Science Review, 2025):
Where two headings read alike, the source gives them in different places.

Columns and labels:
H1N1 [1] = test: Dose-response of infectivity, H1N1 in A549 cells (viral mRNA by qRT-PCR); assay type: cell-based; settings: Influenza A virus; A549 cells, H1N1; read-out: EC50
EMCV [2] = test: microbe, parasite or virus in culture; assay type: cell-based, encephalomyocarditis virus (EMCV); settings: Cardiovirus A, A549
H1N1 [3] = test: Dose-response of infectivity, H1N1 in L929 cells; assay type: cell-based; settings: Influenza A virus
EMCV [4] = test: microbe, parasite or virus in culture; assay type: cell-based, encephalomyocarditis virus (EMCV); settings: Cardiovirus A, L929
VSV [5] = assay type: cell-based, vesicular stomatitis virus (VSV)
EMCV [6] = assay type: cell-based, encephalomyocarditis virus (EMCV)
H1N1 [7] = test: Viral attachment, entry and post-entry assay, H1N1 in A549 cells; assay type: cell-based, influenza virus A (H1N1)
EMCV [8] = assay type: cell-based, encephalomyocarditis virus (EMCV); remark: listed apart in the source
A549 cells [9] = assay type: cell-based
A549 cells [10] = test: Confocal analysis of filipin-stained cholesterol distribution in A549 cells; assay type: cell-based
H1N1 [11] = test: Antiviral effect in normal/serum-free medium during H1N1 infection of A549 cells; assay type: cell-based, influenza virus A (H1N1); settings: serum-free conditions
STAT1 = test: Confocal analysis of nuclear localization of STAT1 in A549 cells; assay type: cell-based
[12] = system: STING-dependent antiviral immune pathway; assay type: cell-based
VSV [13] = assay type: cell-based, vesicular stomatitis virus (VSV); settings: Sting-/- BMDM cells vs WT
VSV [14] = assay type: cell-based, vesicular stomatitis virus (VSV); remark: listed apart in the source
VSV [15] = assay type: cell-based, vesicular stomatitis virus (VSV); remark: listed apart in the source
H1N1 [16] = assay type: cell-based, influenza virus A (H1N1)
sgRNA-Npc1 cells = assay type: cell-based, mouse
VSV [17] = assay type: in vivo, C57/BL6J mice; settings: mice
NPC1 [18] = target: T1, NPC1 (Homo sapiens, UniProt O15118); test: Cellular thermal shift assay (CETSA); settings: 150 µM, HepG2 and A549 lysates
T1 sequence (O15118 23-1278): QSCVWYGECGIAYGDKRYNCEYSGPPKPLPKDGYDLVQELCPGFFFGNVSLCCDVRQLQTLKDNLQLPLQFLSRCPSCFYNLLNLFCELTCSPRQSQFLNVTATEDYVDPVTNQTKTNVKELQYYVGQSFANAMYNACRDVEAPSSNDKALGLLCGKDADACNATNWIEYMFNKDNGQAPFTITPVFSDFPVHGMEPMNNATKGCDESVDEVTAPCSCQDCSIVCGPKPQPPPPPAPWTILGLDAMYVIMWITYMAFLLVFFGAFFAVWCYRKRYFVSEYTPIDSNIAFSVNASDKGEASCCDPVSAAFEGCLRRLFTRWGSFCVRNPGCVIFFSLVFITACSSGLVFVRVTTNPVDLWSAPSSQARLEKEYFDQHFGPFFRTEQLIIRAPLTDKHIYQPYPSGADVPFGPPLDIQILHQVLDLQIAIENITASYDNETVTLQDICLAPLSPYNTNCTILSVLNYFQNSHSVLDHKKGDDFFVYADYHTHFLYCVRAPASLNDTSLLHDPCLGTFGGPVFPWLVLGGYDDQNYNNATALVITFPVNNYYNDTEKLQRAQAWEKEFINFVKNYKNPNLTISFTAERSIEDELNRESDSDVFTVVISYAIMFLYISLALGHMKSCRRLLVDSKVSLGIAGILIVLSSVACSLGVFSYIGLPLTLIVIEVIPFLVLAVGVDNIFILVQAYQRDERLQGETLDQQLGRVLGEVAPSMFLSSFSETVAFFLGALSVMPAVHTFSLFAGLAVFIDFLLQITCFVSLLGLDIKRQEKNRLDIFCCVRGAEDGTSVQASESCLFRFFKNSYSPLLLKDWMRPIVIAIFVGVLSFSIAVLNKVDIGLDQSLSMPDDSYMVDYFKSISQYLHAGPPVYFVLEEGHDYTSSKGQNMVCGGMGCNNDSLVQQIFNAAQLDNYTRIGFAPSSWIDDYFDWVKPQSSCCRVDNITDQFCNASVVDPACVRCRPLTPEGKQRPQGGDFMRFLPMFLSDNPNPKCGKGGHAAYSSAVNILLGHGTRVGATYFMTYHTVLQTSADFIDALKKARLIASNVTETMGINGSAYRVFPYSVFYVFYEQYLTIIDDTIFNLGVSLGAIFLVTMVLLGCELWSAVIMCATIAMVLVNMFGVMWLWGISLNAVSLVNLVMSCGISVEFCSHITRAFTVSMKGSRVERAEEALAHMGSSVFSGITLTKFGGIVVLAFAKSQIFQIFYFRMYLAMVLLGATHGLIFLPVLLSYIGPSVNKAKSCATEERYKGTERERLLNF

NPC1 [19] = target: T1, NPC1; test: Drug affinity responsive target stability (DARTS); settings: 150 µM, pronase digestion

`COc1ccc2cc1Oc1ccc(cc1)C[C@H]1c3cc(c(OC)cc3CCN1C)Oc1c(OC)c(OC)cc3c1[C@H](C2)N(C)CC3` [Tet, tetrandrine] gave an EC50 (H1N1 [1]) of 0.33 µM, an EC50 (EMCV [2]) of 0.231 µM and an EC50 (H1N1 [3]) of 0.541 µM. For the same molecule, the EC50 (EMCV [4]) was 0.989 µM, the “VSV replication (VSV-G protein, immunoblotting)” value (VSV [5]) was “inhibited” and the EMCV infection (EMCV [6]) was “effectively suppressed”. The “H1N1 infection during entry or post-entry stages” value (H1N1 [7]) was “inhibited”, the H1N1 attachment (H1N1 [7]; 4°C) was “without affecting virus attachment” and the EMCV attachment (EMCV [8]) was “without affecting virus attachment”. For the same molecule, the “EMCV infection during entry or post-entry stages” value (EMCV [8]) was “inhibited”, the intracellular cholesterol levels (A549 cells [9]) was “higher intracellular cholesterol levels” and the “cholesterol distribution / lysosomal cholesterol accumulation” value (A549 cells [10]) was “shifting it from the plasma membrane to endosomal and lysosomal compartments”. For the same molecule, the “antiviral effect on H1N1 entry” value (H1N1 [11]) was “diminished”, the STAT1 nucleus translocation (STAT1) was “promoted STAT1 nucleus translocation” and the “IFNB1 and ISGs gene expression” value [12] was “significantly increased”. The “antiviral effect against VSV” value (VSV [13]) was “markedly reduced”, the “antiviral effect and boosted ISGs” value (VSV [14]) was “significantly attenuated” and the “antiviral effect against VSV” value (VSV [15]) was “diminished”. For the same molecule, the “antiviral effect against H1N1” value (H1N1 [16]) was “diminished”, the antiviral effects (sgRNA-Npc1 cells) was “attenuated but restored with Flag-tagged NPC1 reintroduction” and the “IL-6 level in serum” value (VSV [17]; VSV infection) was “markedly decreased”. For the same molecule, the “TNF-α level in serum” value (VSV [17]; VSV infection) was “markedly decreased”, the “VSV-G protein expression in lungs and spleens” value (VSV [17]; VSV infection) was “inhibited” and the “lung pathology (H&E)” value (VSV [17]; VSV infection) was “reduced lung pathology and cellular infiltrations”. For the same molecule, the “reduction of VSV genome copies in liver, lung, and spleen tissues” value (VSV [17]; intraperitoneal and intragastric, 10–60 mg/kg, 24 hours pre-VSV infection) was 0.5–1 log₁₀, the “NPC1 stability (CETSA)” value (NPC1 [18]) was “enhanced NPC1 stability against degradation” and the “NPC1 stability (DARTS)” value (NPC1 [19]) was “enhanced NPC1 stability against degradation”.
